The test system of data set [1] is hCD39 mRNA. Nature of the data set: hCD39 mRNA knockdown efficacy screen in A-172 cells (single dose, gymnotic delivery, QuantiGene Singleplex). It is filed as cell-based, human. Conditions: 10 μM, 3 days; for Mean hCD39 mRNA expression (relative to untreated cells set as 1): first screening round; for Mean hCD39 mRNA expression (relative to untreated cells set as 1) / Relative hCD39 mRNA expression (compared to non-treated cells): normalized to HPRT1; for Relative hCD39 mRNA expression (compared to non-treated cells): second screening round. Here is the method: (§1) FIGS. 2A to 2D depict hCD39 mRNA knockdown efficacy of hCD39 antisense oligonucleotides in human cancer cell lines HDLM-2 (human Hodgkin Lymphoma) in a first and second screening round (FIGS. 2A-1 and 2A-2) and 2B-1 and 2B-2 and A-172 (human glioblastoma) in a first and second screening round (FIGS. 2C-1 and 2C-2) and 2D-1 and 2D-2. HDLM-2 and A-172 cells were treated for 3 days with 10 μM of the respective antisense oligonucleotide. As negative control, cells were treated with neg1, an antisense oligonucleotide having the sequence CGTTTAGGCTATGTACTT (SEQ ID NO:99) (described in WO2014154843 A1). Residual hCD39 mRNA expression relative to untreated cells is depicted. Expression values were normalized to expression of the housekeeping gene HPRT1. Depicted is the mean of triplicate wells+/−SD.
(§2) FIGS. 6A-6B depicts a third screening round where further antisense oligonucleotides were designed. These antisense oligonucleotides were based on efficient antisense oligonucleotides from the first and second screening round. Therefore, hCD39 antisense oligonucleotides were tested in human cancer cell lines HDLM-2 (human Hodgkin's lymphoma) (FIG. 6A) and A-172 (human glioblastoma) (FIG. 6B). HDLM-2 and A-172 cells were treated for 3 days with 10 μM of the respective antisense oligonucleotide. […] Residual hCD39 mRNA expression relative to untreated cells (set as 1) is depicted.
(§3) In order to analyze the efficacy of hCD39 antisense oligonucleotides of the present invention with regard to the knockdown of hCD39 mRNA expression in cancer cell lines, HDLM-2 (human Hodgkin Lymphoma, DSMZ) and A-172 (human glioblastoma, ATCC) cells were treated with a single dose (concentration: 10 μM without addition of any transfection reagent; this process is called gymnotic delivery) of the respective antisense oligonucleotide as shown in FIG. 2A to 2D. hCD39 and HPRT1 mRNA expression was analyzed three days later using the QuantiGene Singleplex assay (Affymetrix) and hCD39 expression values were normalized to HPRT1 values. […] Values of the mean normalized mRNA expression of hCD39 compared to non-treated cells are listed for A-172 (Table 4 for first screening round and Table 5 for second screening round) and HDLM-2 cells (Table 6 for first screening round and Table 7 for second screening round) in the following:
(§4) For a third screening round, new antisense oligonucleotides were designed. These antisense oligonucleotides were based on efficient antisense oligonucleotides from the first screening round with modifications in length, exact position on mRNA and chemical modification pattern. Therefore, hCD39 antisense oligonucleotides were tested in human cancer cell lines (FIG. 6A, Table 10) HDLM-2 (human Hodgkin's lymphoma) and (FIG. 6B, Table 11) A-172 (human glioblastoma). HDLM-2 and A-172 cells were treated for 3 days with 10 μM of the respective antisense oligonucleotide. […] Residual hCD39 mRNA expression relative to untreated cells (set as 1) is depicted.

In data set [2] the test system is hCD39 mRNA. Nature of the data set: hCD39 mRNA knockdown efficacy screen in HDLM-2 cells (single dose, gymnotic delivery, QuantiGene Singleplex). The data set is classed as cell-based, human. The arrangement: key to Relative hCD39 mRNA expression (compared to non-treated cells): *: values are below detection limit. Particulars: 10 μM, 3 days; for Mean hCD39 mRNA expression normalized to HPRT1 relative to untreated control = 1: first screening round; for Relative hCD39 mRNA expression (compared to non-treated cells): second screening round, normalized to HPRT1. On the procedure:
as §1, §2, §3, §4

l = locked nucleic acid (LNA); d = 2'-deoxy (DNA)

On to “+A*+G*+G*C*G*A*A*A*T*T*G*C*+A*+G*+A (antisense AGGCGAAATTGCAGA; sugars from the 5' end l3 d9 l3, all phosphorothioate, methylation of C not given here) [A04008H]”, for which, in data set [1], the “Mean hCD39 mRNA expression (relative to untreated cells set as 1)” value worked out at 0.46 and the “Relative hCD39 mRNA expression (compared to non-treated cells)” value is on record as 0.46. In addition, in data set [2], the “Mean hCD39 mRNA expression normalized to HPRT1 relative to untreated control = 1” value was 0.20 and the “Relative hCD39 mRNA expression (compared to non-treated cells)” value is reported as 0.20.
As to “+A*+G*T*C*C*A*G*C*C*G*G*C*G*T*+C (antisense AGTCCAGCCGGCGTC; sugars from the 5' end l2 d12 l1, all phosphorothioate, methylation of C not given here) [A04015H]”, in data set [1], the “Relative hCD39 mRNA expression (compared to non-treated cells)” value is reported as 1.05. Further, in data set [2], the “Mean hCD39 mRNA expression normalized to HPRT1 relative to untreated control = 1” value came out at 0.29 and the “Relative hCD39 mRNA expression (compared to non-treated cells)” value is 0.29.
For the substance “+C*+T*+G*A*C*T*G*A*A*T*T*T*G*+C*+C*+C (antisense CTGACTGAATTTGCCC; sugars from the 5' end l3 d10 l3, all phosphorothioate, methylation of C not given here) [A04021H]”, in data set [1], the “Mean hCD39 mRNA expression (relative to untreated cells set as 1)” value was 0.16 and the “Relative hCD39 mRNA expression (compared to non-treated cells)” value stood at 0.16. Also, in data set [2], the “Mean hCD39 mRNA expression normalized to HPRT1 relative to untreated control = 1” value was found to be 0.11 and the “Relative hCD39 mRNA expression (compared to non-treated cells)” value is listed as 0.11.
Consider “+T*+A*G*A*C*A*T*T*G*T*A*G*+T*+C*+C (antisense TAGACATTGTAGTCC; sugars from the 5' end l2 d10 l3, all phosphorothioate, methylation of C not given here) [A04009H]”, for which, in data set [1], the “Mean hCD39 mRNA expression (relative to untreated cells set as 1)” value is 0.28 and the “Relative hCD39 mRNA expression (compared to non-treated cells)” value is recorded as 0.29. Also, in data set [2], the “Mean hCD39 mRNA expression normalized to HPRT1 relative to untreated control = 1” value worked out at 0.15 and the “Relative hCD39 mRNA expression (compared to non-treated cells)” value turned out to be 0.15.
Turning to “+C*+T*+C*C*A*G*C*G*T*A*A*G*+A*+T (antisense CTCCAGCGTAAGAT; sugars from the 5' end l3 d9 l2, all phosphorothioate, methylation of C not given here) [A04002H]”, the “Relative hCD39 mRNA expression (compared to non-treated cells)” value turned out to be 0.96 in data set [1] and 0.53 in data set [2].
With “+G*G*+T*T*T*G*T*G*T*G*A*G*+A*G*+C (antisense GGTTTGTGTGAGAGC; sugars from the 5' end ldldddddddddldl, all phosphorothioate, methylation of C not given here) [A04062H]”, the results for the “Residual hCD39 mRNA expression relative to untreated cells (set as 1)” value in data set [1] (third screening round) and in data set [2] (third screening round) were 0.17 and 0.01, respectively.
For the substance “+C*+C*+C*T*C*T*C*A*C*T*A*A*A*+T*+T*+A (antisense CCCTCTCACTAAATTA; sugars from the 5' end l3 d10 l3, all phosphorothioate, methylation of C not given here) [A04036H]”, in data set [1], the “Mean hCD39 mRNA expression (relative to untreated cells set as 1)” value is listed as 0.55 and the “Relative hCD39 mRNA expression (compared to non-treated cells)” value was 0.28. In data set [2], the “Mean hCD39 mRNA expression normalized to HPRT1 relative to untreated control = 1” value was 0.26 and the “Relative hCD39 mRNA expression (compared to non-treated cells)” value amounted to 0.01.
On the same counts, the results for “+C*T*+T*G*C*C*A*T*A*G*A*G*G*C*+G*A*+A (antisense CTTGCCATAGAGGCGAA; sugars from the 5' end ldldddddddddddldl, all phosphorothioate, methylation of C not given here) [A04041H]” are 0.46, 0.24, 0.18 and “*”.
On the same counts, the results for “+T*+T*+G*A*A*C*A*C*T*G*C*+G*+A*+T (antisense TTGAACACTGCGAT; sugars from the 5' end l3 d8 l3, all phosphorothioate, methylation of C not given here) [A04003H]” are 0.18, 0.18, 0.20 and 0.20.
Turning to “+G*+A*+G*G*C*G*A*A*A*T*T*G*C*A*+G*+A (antisense GAGGCGAAATTGCAGA; sugars from the 5' end l3 d11 l2, all phosphorothioate, methylation of C not given here) [A04024H]”, in data set [1], the “Mean hCD39 mRNA expression (relative to untreated cells set as 1)” value is listed as 0.45 and the “Relative hCD39 mRNA expression (compared to non-treated cells)” value was determined as 0.45. Further, in data set [2], the “Mean hCD39 mRNA expression normalized to HPRT1 relative to untreated control = 1” value turned out to be 0.15 and the “Relative hCD39 mRNA expression (compared to non-treated cells)” value is 0.15.
For “+C*+T*+A*T*G*C*T*G*A*A*C*C*+A*+C*+C (antisense CTATGCTGAACCACC; sugars from the 5' end l3 d9 l3, all phosphorothioate, methylation of C not given here) [A04005H]”, in data set [1], the “Mean hCD39 mRNA expression (relative to untreated cells set as 1)” value was 0.11 and the “Relative hCD39 mRNA expression (compared to non-treated cells)” value stood at 0.11. In data set [2], the “Mean hCD39 mRNA expression normalized to HPRT1 relative to untreated control = 1” value is 0.21 and the “Relative hCD39 mRNA expression (compared to non-treated cells)” value was found to be 0.21.
Turning to “+A*+A*+A*G*T*C*C*A*G*C*C*G*G*C*G*+T*+C (antisense AAAGTCCAGCCGGCGTC; sugars from the 5' end l3 d12 l2, all phosphorothioate, methylation of C not given here) [A04050H]”, in data set [1], the “Mean hCD39 mRNA expression (relative to untreated cells set as 1)” value is given as 0.55 and the “Relative hCD39 mRNA expression (compared to non-treated cells)” value was 0.28. For the same substance, in data set [2], the “Mean hCD39 mRNA expression normalized to HPRT1 relative to untreated control = 1” value turned out to be 0.11 and the “Relative hCD39 mRNA expression (compared to non-treated cells)” value stood at 0.90.
For the substance “+C*+A*+T*G*T*A*G*C*C*C*A*A*A*+G*+T*+C (antisense CATGTAGCCCAAAGTC; sugars from the 5' end l3 d10 l3, all phosphorothioate, methylation of C not given here) [A04029H]”, in data set [1], the “Mean hCD39 mRNA expression (relative to untreated cells set as 1)” value was determined as 0.45 and the “Relative hCD39 mRNA expression (compared to non-treated cells)” value is on record as 0.46. In data set [2], the “Mean hCD39 mRNA expression normalized to HPRT1 relative to untreated control = 1” value was determined as 0.03 and the “Relative hCD39 mRNA expression (compared to non-treated cells)” value stood at 0.03.
As for “+A*+A*+G*G*T*C*A*C*T*T*A*C*G*T*+T*+C*+A (antisense AAGGTCACTTACGTTCA; sugars from the 5' end l3 d11 l3, all phosphorothioate, methylation of C not given here) [A04046H]”, in data set [1], the “Mean hCD39 mRNA expression (relative to untreated cells set as 1)” value is on record as 0.14 and the “Relative hCD39 mRNA expression (compared to non-treated cells)” value is 0.08. For the same substance, in data set [2], the “Mean hCD39 mRNA expression normalized to HPRT1 relative to untreated control = 1” value came out at 0.04 and the “Relative hCD39 mRNA expression (compared to non-treated cells)” value stood at 0.37.
On the same counts, the results for “+A*+C*+T*C*C*A*C*A*C*T*A*A*T*+G*+C*+T (antisense ACTCCACACTAATGCT; sugars from the 5' end l3 d10 l3, all phosphorothioate, methylation of C not given here) [A04037H]” are 0.17, 0.09, 0.12 and 0.10.
On the same counts, the results for “+G*+C*C*A*T*A*G*G*C*A*C*C*+T*+T*+C (antisense GCCATAGGCACCTTC; sugars from the 5' end l2 d10 l3, all phosphorothioate, methylation of C not given here) [A04004H]” are 0.65, 0.66, 0.22 and 0.21.

The values are drawn from US11959083B2, “Immunosuppression-reverting oligonucleotides inhibiting the expression of CD39” (Secarna Pharmaceuticals GmbH & Co. KG, priority 2016, dated 2024).
